Data taken from patent publication US11981658B2, “Substituted aminopyridine compounds as EGFR inhibitors” (YUHAN CORPORATION, priority 2021, dated 2024).
Read-outs that look alike come from different tables or passages of the source.

Columns and labels:
EGFR Del19/C797S = EGFR Del19/C797S (Homo sapiens, UniProt P00533, C797S/DEL746-750); experiment: Biochemical EGFR kinase inhibition assay (Lance Ultra TR-FRET), double mutant del19/C797S
Protocol: (§1) Biochemical EGFR kinase assays were conducted using Lance Ultra time-resolved fluorescence resonance energy transfer (TR-FRET) technology from Perkin-Elmer. Compounds of the invention were initially diluted to 20 mM in 100% DMSO for storage and made into kinase buffer solution to create a compound concentration ranging from 0.003 μM and 10 μM.
(§2) Each kinase reactions were incubated at room temperature for 1 hour and then stopped by the addition of 4 μL of stop solution (10 mM EDTA). The specific Europium-labeled-anti-phosphopeptide antibody (PerkinElmer, AD0069) diluted in LANCE detection buffer was then added to a final concentration of 2 nM. After 60 minutes incubation at room temperature the LANCE signal was measured on an EnVision Multilabel Reader (Perkin-Elmer). Excitation wavelength was set at 320 nm and emission monitored at 615 nm (donor) and 665 nm (acceptor). The IC50 values were determined using GraphPad prism software (GraphPad Software, Inc., San Diego, CA, USA).

EGFR Del19/T790M/C797S = EGFR Del19/T790M/C797S (Homo sapiens, UniProt P00533, C797S/DEL746-750/T790M); experiment: Biochemical EGFR kinase inhibition assay (Lance Ultra TR-FRET), triple mutant del19/T790M/C797S
Protocol: as §1, §2

EGFR L858R/C797S = EGFR L858R/C797S (Homo sapiens, UniProt P00533, C797S/L858R); experiment: Biochemical EGFR kinase inhibition assay (Lance Ultra TR-FRET), double mutant L858R/C797S
Sequence of EGFR L858R/C797S (P00533 25-1210 C797S/L858R): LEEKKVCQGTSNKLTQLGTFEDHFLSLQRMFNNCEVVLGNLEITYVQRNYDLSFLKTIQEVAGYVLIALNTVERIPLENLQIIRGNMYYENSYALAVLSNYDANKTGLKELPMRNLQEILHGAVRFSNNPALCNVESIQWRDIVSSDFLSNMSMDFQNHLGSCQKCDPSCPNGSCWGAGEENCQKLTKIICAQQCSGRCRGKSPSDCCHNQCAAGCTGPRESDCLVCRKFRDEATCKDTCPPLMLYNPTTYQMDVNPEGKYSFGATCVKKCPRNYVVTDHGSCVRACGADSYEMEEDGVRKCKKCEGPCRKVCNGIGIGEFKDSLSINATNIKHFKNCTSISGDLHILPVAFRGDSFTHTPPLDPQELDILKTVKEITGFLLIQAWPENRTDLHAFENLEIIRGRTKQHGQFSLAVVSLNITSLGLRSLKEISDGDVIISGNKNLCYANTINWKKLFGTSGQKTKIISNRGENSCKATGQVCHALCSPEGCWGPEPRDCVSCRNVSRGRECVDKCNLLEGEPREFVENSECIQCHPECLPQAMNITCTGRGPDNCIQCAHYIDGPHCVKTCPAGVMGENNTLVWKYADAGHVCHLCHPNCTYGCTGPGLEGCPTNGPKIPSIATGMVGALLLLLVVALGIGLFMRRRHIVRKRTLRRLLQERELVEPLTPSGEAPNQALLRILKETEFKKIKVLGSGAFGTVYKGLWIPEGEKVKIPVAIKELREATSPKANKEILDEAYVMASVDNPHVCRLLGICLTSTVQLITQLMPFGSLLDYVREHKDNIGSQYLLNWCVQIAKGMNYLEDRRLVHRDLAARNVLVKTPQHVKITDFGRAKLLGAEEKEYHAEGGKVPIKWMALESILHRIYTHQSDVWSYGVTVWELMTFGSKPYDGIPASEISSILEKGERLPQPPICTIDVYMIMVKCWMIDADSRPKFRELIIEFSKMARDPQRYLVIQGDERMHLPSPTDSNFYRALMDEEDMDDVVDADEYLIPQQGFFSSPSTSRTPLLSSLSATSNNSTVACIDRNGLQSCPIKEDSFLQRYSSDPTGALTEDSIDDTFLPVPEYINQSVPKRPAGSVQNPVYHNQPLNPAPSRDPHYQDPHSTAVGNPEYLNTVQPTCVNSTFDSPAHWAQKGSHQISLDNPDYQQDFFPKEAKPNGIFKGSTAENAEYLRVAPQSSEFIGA
Protocol: as §1, §2

EGFR L858R/T790M/C797S = EGFR L858R/T790M/C797S (Homo sapiens, UniProt P00533, C797S/L858R/T790M); experiment: Biochemical EGFR kinase inhibition assay (Lance Ultra TR-FRET), triple mutant L858R/T790M/C797S
Sequence of EGFR L858R/T790M/C797S (P00533 25-1210 T790M/C797S/L858R): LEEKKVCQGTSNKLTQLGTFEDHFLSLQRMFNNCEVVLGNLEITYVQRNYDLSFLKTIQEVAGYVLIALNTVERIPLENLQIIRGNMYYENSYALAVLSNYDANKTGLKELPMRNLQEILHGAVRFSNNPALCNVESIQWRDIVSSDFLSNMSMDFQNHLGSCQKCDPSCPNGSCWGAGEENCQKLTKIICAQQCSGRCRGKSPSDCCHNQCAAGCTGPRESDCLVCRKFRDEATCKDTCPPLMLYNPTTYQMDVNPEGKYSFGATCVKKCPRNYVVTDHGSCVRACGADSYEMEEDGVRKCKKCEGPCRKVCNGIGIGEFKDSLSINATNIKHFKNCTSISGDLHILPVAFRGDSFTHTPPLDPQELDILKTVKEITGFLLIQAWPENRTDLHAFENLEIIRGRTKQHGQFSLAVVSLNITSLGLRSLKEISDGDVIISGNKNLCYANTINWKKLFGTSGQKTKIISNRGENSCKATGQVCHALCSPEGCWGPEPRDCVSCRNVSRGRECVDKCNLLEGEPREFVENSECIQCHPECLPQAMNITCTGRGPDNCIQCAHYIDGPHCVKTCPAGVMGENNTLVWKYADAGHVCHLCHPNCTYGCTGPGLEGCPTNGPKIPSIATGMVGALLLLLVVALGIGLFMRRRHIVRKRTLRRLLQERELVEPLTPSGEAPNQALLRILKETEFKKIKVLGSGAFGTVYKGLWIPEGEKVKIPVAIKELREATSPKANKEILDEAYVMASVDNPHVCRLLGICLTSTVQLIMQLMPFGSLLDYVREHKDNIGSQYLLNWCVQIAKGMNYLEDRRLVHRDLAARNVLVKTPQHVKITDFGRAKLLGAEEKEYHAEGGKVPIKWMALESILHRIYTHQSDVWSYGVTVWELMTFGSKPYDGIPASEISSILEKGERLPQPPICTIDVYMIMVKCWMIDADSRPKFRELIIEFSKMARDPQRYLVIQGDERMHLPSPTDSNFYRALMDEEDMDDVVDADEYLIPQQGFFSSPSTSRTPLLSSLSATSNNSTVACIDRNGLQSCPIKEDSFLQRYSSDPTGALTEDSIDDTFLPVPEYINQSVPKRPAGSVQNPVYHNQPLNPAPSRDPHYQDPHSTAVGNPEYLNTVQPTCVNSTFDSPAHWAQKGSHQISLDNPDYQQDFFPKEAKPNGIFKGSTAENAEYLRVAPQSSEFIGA
Protocol: as §1, §2

EGFR wildtype (WT) = EGFR wildtype (WT) (Homo sapiens, UniProt P00533); experiment: Biochemical EGFR kinase inhibition assay (Lance Ultra TR-FRET), wildtype
Sequence of EGFR wildtype (WT) (P00533 25-1210): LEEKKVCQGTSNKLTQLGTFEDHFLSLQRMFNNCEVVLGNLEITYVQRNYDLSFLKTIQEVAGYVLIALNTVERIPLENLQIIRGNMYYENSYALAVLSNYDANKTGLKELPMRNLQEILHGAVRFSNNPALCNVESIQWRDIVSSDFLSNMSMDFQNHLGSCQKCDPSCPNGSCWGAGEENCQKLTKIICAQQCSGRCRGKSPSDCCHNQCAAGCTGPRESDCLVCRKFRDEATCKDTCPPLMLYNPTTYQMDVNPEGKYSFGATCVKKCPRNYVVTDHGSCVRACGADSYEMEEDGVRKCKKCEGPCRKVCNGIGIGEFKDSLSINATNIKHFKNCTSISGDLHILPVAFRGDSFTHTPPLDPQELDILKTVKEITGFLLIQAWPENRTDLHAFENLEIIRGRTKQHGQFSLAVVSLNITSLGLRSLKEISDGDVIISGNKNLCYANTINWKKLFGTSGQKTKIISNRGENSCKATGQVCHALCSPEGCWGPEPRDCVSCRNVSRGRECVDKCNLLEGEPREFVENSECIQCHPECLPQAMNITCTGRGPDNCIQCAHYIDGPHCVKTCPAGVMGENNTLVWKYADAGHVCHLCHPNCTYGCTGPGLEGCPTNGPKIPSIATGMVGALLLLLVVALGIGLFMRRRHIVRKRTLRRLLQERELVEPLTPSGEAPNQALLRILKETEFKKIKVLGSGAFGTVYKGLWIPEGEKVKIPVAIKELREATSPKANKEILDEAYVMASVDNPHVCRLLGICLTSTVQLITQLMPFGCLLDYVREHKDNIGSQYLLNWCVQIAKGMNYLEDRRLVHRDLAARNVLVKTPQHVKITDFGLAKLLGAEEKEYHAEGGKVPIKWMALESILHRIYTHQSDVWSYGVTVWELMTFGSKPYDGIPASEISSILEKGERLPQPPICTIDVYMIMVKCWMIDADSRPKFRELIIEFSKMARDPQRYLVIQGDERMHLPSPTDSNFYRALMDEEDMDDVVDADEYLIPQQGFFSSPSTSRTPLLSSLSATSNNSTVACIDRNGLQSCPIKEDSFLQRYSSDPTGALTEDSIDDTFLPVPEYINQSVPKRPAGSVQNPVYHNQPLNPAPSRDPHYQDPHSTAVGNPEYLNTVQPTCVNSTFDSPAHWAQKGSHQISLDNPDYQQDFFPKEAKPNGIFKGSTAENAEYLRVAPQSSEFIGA
Protocol: as §1, §2

[1] = IC50 Del19/C797S (nM), 100 μM ATP
[2] = Km ATP, read-out: IC50 Del19/C797S (nM) Km ATP
[3] = IC50 Del19/T790M/C797S (nM), 100 μM ATP
[4] = Km ATP, read-out: IC50 Del19/T790M/C797S (nM) Km ATP
[5] = Km ATP, read-out: IC50 L858R/C797S (nM) Km ATP
[6] = IC50 L858R/T790M/C797S (nM), 100 μM ATP
[7] = Km ATP, read-out: IC50 L858R/T790M/C797S (nM) Km ATP
[8] = Km ATP, read-out: IC50 WT (nM) Km ATP
[9] = IC50 L858R/C797S (nM), 100 μM ATP

Sequence of EGFR Del19/C797S (P00533 with tags, fused parts or gaps DEL746-750/C797S): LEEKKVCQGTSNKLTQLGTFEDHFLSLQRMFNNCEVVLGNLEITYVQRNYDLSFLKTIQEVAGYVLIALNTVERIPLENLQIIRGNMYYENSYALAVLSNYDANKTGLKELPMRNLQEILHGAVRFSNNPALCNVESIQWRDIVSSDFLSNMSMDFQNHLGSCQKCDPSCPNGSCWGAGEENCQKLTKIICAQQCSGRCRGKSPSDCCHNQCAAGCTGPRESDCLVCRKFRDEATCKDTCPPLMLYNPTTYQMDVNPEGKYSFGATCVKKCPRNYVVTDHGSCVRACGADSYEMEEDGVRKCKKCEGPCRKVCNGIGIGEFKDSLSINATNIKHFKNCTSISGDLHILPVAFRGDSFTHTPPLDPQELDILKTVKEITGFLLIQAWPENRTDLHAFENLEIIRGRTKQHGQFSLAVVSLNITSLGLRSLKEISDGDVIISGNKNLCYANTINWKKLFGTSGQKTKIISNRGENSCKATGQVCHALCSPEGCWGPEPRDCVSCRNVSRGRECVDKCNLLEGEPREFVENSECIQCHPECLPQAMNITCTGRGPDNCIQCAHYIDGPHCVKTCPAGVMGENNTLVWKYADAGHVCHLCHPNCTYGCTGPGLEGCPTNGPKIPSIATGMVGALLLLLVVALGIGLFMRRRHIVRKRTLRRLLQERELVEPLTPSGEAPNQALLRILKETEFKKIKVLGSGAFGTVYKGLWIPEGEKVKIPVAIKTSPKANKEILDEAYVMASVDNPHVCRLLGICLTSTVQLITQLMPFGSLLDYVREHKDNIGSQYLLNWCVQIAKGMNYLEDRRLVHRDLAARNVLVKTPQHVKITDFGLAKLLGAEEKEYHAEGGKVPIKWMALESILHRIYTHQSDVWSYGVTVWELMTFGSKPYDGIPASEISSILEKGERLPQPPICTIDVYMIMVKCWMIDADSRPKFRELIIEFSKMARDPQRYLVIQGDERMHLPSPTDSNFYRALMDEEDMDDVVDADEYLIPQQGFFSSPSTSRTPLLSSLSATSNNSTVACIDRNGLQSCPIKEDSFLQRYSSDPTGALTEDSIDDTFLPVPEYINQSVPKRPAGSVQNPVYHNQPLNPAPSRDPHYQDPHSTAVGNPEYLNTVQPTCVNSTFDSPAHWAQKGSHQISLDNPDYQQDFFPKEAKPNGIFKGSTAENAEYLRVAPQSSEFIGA

CC(C)Nc1cc(Nc2ccnc(-c3cnn(S(=O)(=O)C4CC4)c3)n2)ncc1C#Cc1cnn(CCF)c1 [Example 20, N^2-(2-(1-(Cyclopropylsulfonyl)-1H-pyrazol-4-yl)pyrimidin-4-yl)-5-((1-(2-fluoroethyl)-1H-pyrazol-4-yl)ethynyl)-N^4-isopropylpyridine-2,4-diamine] showed an IC50 (EGFR Del19/C797S; [1]) of 61.5 nM, an IC50 (EGFR Del19/C797S; [2]) of 23.1 nM and an IC50 (EGFR Del19/T790M/C797S; [3]) of 2.4 nM. For the same compound, the IC50 (EGFR Del19/T790M/C797S; [4]) was 1.2 nM, the IC50 (EGFR L858R/C797S; [5]) was 20.4 nM and the IC50 (EGFR L858R/T790M/C797S; [6]) was 1.6 nM. For the same compound, the IC50 (EGFR L858R/T790M/C797S; [7]) was 1.3 nM, the IC50 (EGFR wildtype (WT); IC50 WT (nM), 100 μM ATP) was > 10000 nM and the IC50 (EGFR wildtype (WT); [8]) was 517 nM.

CC(C)Nc1cc(Nc2ccnc(-c3cnn(S(=O)(=O)C4CC4)c3)n2)ncc1C#Cc1cnn(CC(F)F)c1 [Example 23, N^2-(2-(1-(Cyclopropylsulfonyl)-1H-pyrazol-4-yl)pyrimidin-4-yl)-5-((1-(2,2-difluoroethyl)-1H-pyrazol-4-yl)ethynyl)-N^4-isopropylpyridine-2,4-diamine] gave an IC50 (EGFR Del19/C797S; [2]) of 77.7 nM, an IC50 (EGFR Del19/T790M/C797S; [4]) of 1.6 nM and an IC50 (EGFR L858R/C797S; [5]) of 92.5 nM. The IC50 (EGFR L858R/T790M/C797S; [7]) was 7.1 nM and the IC50 (EGFR wildtype (WT); [8]) was 907 nM.

Cn1cc(C#Cc2cnc(Nc3ccnc(-c4cnn(S(=O)(=O)C5CC5)c4)n3)cc2N2CCC(O)CC2)cn1 [Example 27, 1-(2-((2-(1-(Cyclopropylsulfonyl)-1H-pyrazol-4-yl)pyrimidin-4-yl)amino)-5-((1-methyl-1H-pyrazol-4-yl)ethynyl)pyridin-4-yl)piperidin-4-ol] was tested, and the IC50 (EGFR Del19/C797S; [1]) was 4.1 nM, the IC50 (EGFR Del19/C797S; [2]) was 4 nM and the IC50 (EGFR Del19/T790M/C797S; [3]) was 0.6 nM. It also gave an IC50 (EGFR Del19/T790M/C797S; [4]) of 0.6 nM, an IC50 (EGFR L858R/C797S; [9]) of 27.8 nM and an IC50 (EGFR L858R/C797S; [5]) of 3.6 nM. For the same compound, the IC50 (EGFR L858R/T790M/C797S; [6]) was 1.5 nM, the IC50 (EGFR wildtype (WT); IC50 WT (nM), 100 μM ATP) was > 10000 nM and the IC50 (EGFR wildtype (WT); [8]) was 22 nM.

O=S(=O)(C1CC1)n1cc(-c2nccc(Nc3cc(N4CCC(O)CC4)c(C#Cc4cnn(CCF)c4)cn3)n2)cn1 [Example 28, 1-(2-((2-(1-(Cyclopropylsulfonyl)-1H-pyrazol-4-yl)pyrimidin-4-yl)amino)-5-((1-(2-fluoroethyl)-1H-pyrazol-4-yl)ethynyl)pyridin-4-yl)piperidin-4-ol] showed an IC50 (EGFR Del19/C797S; [1]) of 4.9 nM, an IC50 (EGFR Del19/T790M/C797S; [3]) of 0.7 nM and an IC50 (EGFR L858R/C797S; [9]) of 28.1 nM. The IC50 (EGFR L858R/T790M/C797S; [6]) was 2.3 nM and the IC50 (EGFR wildtype (WT); IC50 WT (nM), 100 μM ATP) was > 10000 nM.

With Cn1cc(C#Cc2cnc(Nc3ccnc(-c4cnn(S(=O)(=O)C5CC5)c4)n3)cc2N2CCC(CO)CC2)cn1 [Example 29, (1-(2-((2-(1-(Cyclopropylsulfonyl)-1H-pyrazol-4-yl)pyrimidin-4-yl)amino)-5-((1-methyl-1H-pyrazol-4-yl)ethynyl)pyridin-4-yl)piperidin-4-yl)methanol] the IC50 (EGFR Del19/C797S; [1]) was 2.7 nM, the IC50 (EGFR Del19/T790M/C797S; [3]) was 1.8 nM and the IC50 (EGFR L858R/C797S; [9]) was 28.1 nM. It also gave an IC50 (EGFR L858R/T790M/C797S; [6]) of 2.3 nM and an IC50 (EGFR wildtype (WT); IC50 WT (nM), 100 μM ATP) of 8000 nM.

O=S(=O)(C1CC1)n1cc(-c2nccc(Nc3cc(N4CCC(CO)CC4)c(C#Cc4cnn(CCF)c4)cn3)n2)cn1 [Example 30, (1-(2-((2-(1-(Cyclopropylsulfonyl)-1H-pyrazol-4-yl)pyrimidin-4-yl)amino)-5-((1-(2-fluoroethyl)-1H-pyrazol-4-yl)ethynyl)pyridin-4-yl)piperidin-4-yl)methanol] gave an IC50 (EGFR Del19/C797S; [1]) of 2.8 nM, an IC50 (EGFR Del19/C797S; [2]) of 3 nM and an IC50 (EGFR Del19/T790M/C797S; [3]) of 1.3 nM. For the same compound, the IC50 (EGFR Del19/T790M/C797S; [4]) was 0.9 nM, the IC50 (EGFR L858R/C797S; [9]) was 22.3 nM and the IC50 (EGFR L858R/C797S; [5]) was 4.4 nM. For the same compound, the IC50 (EGFR L858R/T790M/C797S; [6]) was 1.4 nM, the IC50 (EGFR wildtype (WT); IC50 WT (nM), 100 μM ATP) was > 10000 nM and the IC50 (EGFR wildtype (WT); [8]) was 8.2 nM.

Cn1cc(C#Cc2cnc(Nc3ccnc(-c4cnn(S(=O)(=O)C5CC5)c4)n3)cc2N2CC[C@@H](O)C2)cn1 [Example 31, (R)-1-(2-((2-(1-(Cyclopropylsulfonyl)-1H-pyrazol-4-yl)pyrimidin-4-yl)amino)-5-((1-methyl-1H-pyrazol-4-yl)ethynyl)pyridin-4-yl)pyrrolidin-3-ol] showed an IC50 (EGFR Del19/C797S; [1]) of 6.5 nM, an IC50 (EGFR Del19/T790M/C797S; [3]) of 0.7 nM and an IC50 (EGFR L858R/C797S; [9]) of 52.3 nM. The IC50 (EGFR L858R/T790M/C797S; [6]) was 1.4 nM and the IC50 (EGFR wildtype (WT); IC50 WT (nM), 100 μM ATP) was > 10000 nM.

O=S(=O)(C1CC1)n1cc(-c2nccc(Nc3cc(N4CC[C@@H](O)C4)c(C#Cc4cnn(CCF)c4)cn3)n2)cn1 [Example 32, (R)-1-(2-((2-(1-(Cyclopropylsulfonyl)-1H-pyrazol-4-yl)pyrimidin-4-yl)amino)-5-((1-(2-fluoroethyl)-1H-pyrazol-4-yl)ethynyl)pyridin-4-yl)pyrrolidin-3-ol] was tested, and the IC50 (EGFR Del19/C797S; [1]) was 11.8 nM, the IC50 (EGFR Del19/T790M/C797S; [3]) was 1.1 nM and the IC50 (EGFR Del19/T790M/C797S; [4]) was 1.5 nM. For the same compound, the IC50 (EGFR L858R/C797S; [9]) was 96.9 nM, the IC50 (EGFR L858R/C797S; [5]) was 12 nM and the IC50 (EGFR L858R/T790M/C797S; [6]) was 4.8 nM. For the same compound, the IC50 (EGFR wildtype (WT); IC50 WT (nM), 100 μM ATP) was > 10000 nM and the IC50 (EGFR wildtype (WT); [8]) was 29.4 nM.
